Experimental data: US9109001B2, “3′,5′-cyclic phosphoramidate prodrugs for HCV infection” (priority 2012, dated 2015)
Like-named read-outs stand apart in the source and are kept apart here.

Legend:
[1] = Cytotoxicity evaluation (CellTiter-Blue Cell Viability Assay); assay type: cell-based, human; settings: human, Zluc cells, read-out: HCV Replicon CC50
[2] = Stability in simulated intestinal fluid; assay type: in vitro ADME; settings: 100 μM, 2 hours at 37° C.; percent of peak area at time zero
Procedure: Stability in Simulated Gastric and Intestinal Fluids: Simulated gastric and intestinal fluids containing pepsin and pancreatin respectively were prepared according to the U.S. Pharmacopoeia USP291 procedure (www.pharmacopeia.cn/v29240/usp29nf24s0_ris1s126.html). Test compound (final concentration 100 μM) was incubated in duplicate in the appropriate fluid for 2 hours at 37° C. The samples were quenched with 200 μl cold acetonitrile, vortexed for 30 seconds and then centrifuged at 16,100 g for 10 min. The supernatants were analyzed by HPLC on a C-18 column with UV detection at 252 nm. The time 0 samples were prepared by adding SGF or SIF fluid to the quenching solvent followed by the test compound. Stability of the compound was determined by peak area the test compound after incubation and calculated as percent of the peak area observed at time zero.

[3] = Stability in human liver microsomes; assay type: in vitro ADME; settings: 10 μM, 1.0 mg/mL protein, NADPH, 60 min; percent unchanged
Procedure: Stability in Liver and Intestinal Subcellular Fractions: Stability of test compounds were determined in subcellular fractions (microsomes and S9) of human liver and intestine in duplicate for each matrix. Pooled liver and intestinal microsomal, intestinal and liver S9 proteins (1.0 mg/mL), suspended in incubation buffer (100 mM potassium phosphate, pH 7.4, 5 mM MgCl2, and 0.1 mM EDTA), were preincubated for 5 min at 37° C. with 10 μM of a test compound from a 10 mM stock solution in DMSO (final DMSO concentration was 0.1%); the reaction was initiated by the addition of NADPH (3 mM final concentration). At specific times (0 and 60 min), 0.1 mL samples were taken and the reaction terminated by the addition of 4 volumes of stop solution (acetonitrile with 500 ng/mL carbutamide as an internal standard). The samples were vortexed for 30 sec and then centrifuged at 16,000 g for 10 min. 100 μL of supernatants were transferred to 96 deep-well plates preloaded with 100 μL distilled water and analyzed after mixing by LC-MS/MS. The MS peak area ratio of the test compound versus the internal standard was calculated and percent unchanged test compound over 60 minutes was calculated using this ratio.

Stability in mouse blood = assay type: in vitro ADME; settings: on ice, percent unchanged test compound
Procedure: (§1) Stability in Fresh Whole Blood: Stability of test compounds were determined in fresh human whole blood with K2EDTA as the anticoagulant (stored refrigerated at 2-8° C. and used within 7 days of receipt). The experiment was conducted with three replicates for each time point. Whole blood, pre-incubated at 37° C. for 10-15 minutes, was fortified with a solution of test compound for a final concentration of 0.5 μM and mixed for 30 sec. At intervals (0, 0.5, 1 and 2 hr), three 50-μL aliquots were combined with 200 μL (each) of an ice-cold solution of the internal standard (carbutamide 500 ng/mL in acetonitrile). The samples were vortexed for 30 sec and then centrifuged at 16,100 g for 5 min. The supernatant was analyzed by LC-MS/MS. The MS peak area ratio of the test compound versus the internal standard was calculated and percent unchanged test compound was calculated for each time point using this ratio.
The stability in mouse blood was determined on ice at 0, 0.5 and 1 hr as above.

fresh human hepatocytes = experiment: Release of active metabolite in fresh human hepatocytes; assay type: in vitro ADME; settings: 10 μM
Procedure: Assay for the Release of Active Metabolite in Primary Hepatocytes: Plates of fresh human and mouse hepatocytes were obtained on ice. The medium was removed and replaced with hepatocyte culture medium (William's E supplemented with penicillin-streptomycin, 1% L-glutamine, 1% insulin-transferrin-selenium and 0.1 μM Dexamethasone (Invitrogen) or with Invitro GRO HI medium complemented with Torpedo antibiotics (Celsis)). Cells were left overnight in an incubator at 37° C. to acclimatize to culture and the medium.
Hepatocyte incubations were conducted at a final volume of 0.5 mL hepatocyte culture medium/well (0.8 million cells/well for human and 0.5 million cells/well for mouse; 12 well plate no overlay, collagen coat). Culture medium from overnight incubation of cells was removed and replaced with fresh medium, pre-warmed to 37° C., containing 10 μM of test compound from a stock solution in DMSO (final DMSO concentration was 0.1%). At each specific time point, incubation medium was removed and cell monolayers were carefully washed two times with ice-cold PBS. Following the last wash, all PBS was carefully removed and 1.0 mL of extraction solution (ice-cold 70% methanol/30% water) added. Cells were scraped off and suspended in the extraction solution, transferred to 2 mL polypropylene microfuge tubes and intracellular contents extracted overnight at −20° C.
After the overnight treatment the cellular extracts were prepared by centrifugation at 16,000×g for 10 min to remove cellular debris. The remaining sample was then dried using a refrigerated centrivap concentrator. Dry extracts were reconstituted in 1000 μL of HPLC-grade water and centrifuged at 16,000×g for 10 min. Aliquots (100 μL each) of the supernatant were transferred into a 96 well plate and internal standard (4 ng/mL final concentration) was added as the internal standard (IS) for LC-MS/MS analysis.
The incubation time points were 6, 24 and 48 hours for human hepatocytes and 1, 4, 8, 12 and 24 hours for mouse hepatocytes.

HCV genotype 1b replicon = experiment: HCV Replicon Assay; assay type: cell-based; settings: Zluc (Huh-7-derived) cells, HCV genotype 1b replicon, luciferase reporter, 72 hours, read-out: HCV Replicon EC50
Procedure: Huh-7-derived cell line (Zluc) that harbors an HCV genotype 1b replicon and a luciferase reporter gene was grown in Dulbecco's Modified Eagle Medium (DMEM) supplemented with 10% fetal bovine serum, 2 mM GlutaMAX, 1% MEM nonessential amino acids, 100 IU/mL penicillin, 100 μg/mL streptomycin, and 0.5 mg/mL Geneticin® (G418). For dose response testing the cells were seeded in 96-well plates at 7.5×10^3 cells per well in a volume of 50 μL, and incubated at 37° C./5% CO2. Drug solutions were made up freshly in Huh-7 media as 2× stocks. Ten additional 5-fold dilutions were prepared from these stocks in DMEM without G418. At least three hours after Zluc cells were seeded, drug treatment was initiated by adding 50 μL of drug dilutions to the plates in duplicate. Final concentrations of drug ranged from 100 μM to […]. Cells were then incubated at 37° C./5% CO2. Alternatively, compounds were tested at two concentrations (1 μM and 10 μM). […] For this, media was removed from the plates via gentle tapping. Fifty microliters of ONE-glo luciferase assay reagent was added to each well. The plates were shaken gently for 3 min at room temperature and luminescence was measured on a Victor^3 V 1420 multilabel counter (Perkin Elmer) with a 1 second read time using a 700 nm cut-off filter. The EC50 values were calculated from dose response curves from the resulting best-fit equations determined by Microsoft Excel and XLfit 4.1 software. When screening at two fixed concentrations, the results were expressed as % inhibition at 1 μM and 10 μM.

[4] = Stability in fresh human whole blood; assay type: in vitro ADME; settings: 0.5 μM, percent unchanged test compound
Procedure: as §1

Zluc cells = experiment: Cytotoxicity evaluation (CellTiter-Blue Cell Viability Assay); assay type: cell-based, human; settings: read-out: HCV Replicon CC50

Compound | CC50 [1] | Stability SIF [2] | Stability HLM (1 hr) [3] | Stability WB_Mouse (ice; 1 hr) (Stability in mouse blood) | FHH TP AUC (pmol · hr/mill cells) (fresh human hepatocytes) | EC50 (HCV genotype 1b replicon; Hepatitis C virus, 72 h) | Stability WB_Human (37° C.; 2 hr) [4] | CC50 (Zluc cells) | EC50 (HCV genotype 1b replicon)
CCOc1nc(N)nc2c1ncn2[C@@H]1O[C@@H]2COP(=O)(NCCC(=O)OC(C)C)O[C@H]2[C@@]1(C)F (single isomer, unassigned) [Compound 2 Diastereomer 1] | > 50000 nM | 98% | 6.7% | 15% | BLD^a | 250 to 1000 nM | 98% |  | 
CCOc1nc(N)nc2c1ncn2[C@@H]1O[C@@H]2COP(=O)(N[C@@H](C)COC(=O)C(C)C)O[C@H]2[C@@]1(C)F (single isomer, unassigned) [Compound 3 Diastereomer 2] | > 50000 nM | 39% | 0.3% | 20% | 1426 pmol · hr/mill cells | < 250 nM | 1% |  | 
CCOc1nc(N)nc2c1ncn2[C@@H]1O[C@@H]2COP(=O)(N[C@@H](C)C(=O)OCC(C)C)O[C@H]2[C@@]1(C)F (single isomer, unassigned) [Compound 4 Diastereomer 1] | > 50000 nM | 42% |  | 1% | 1759 pmol · hr/mill cells | < 250 nM | 77% |  | 
CCOc1nc(N)nc2c1ncn2[C@@H]1O[C@@H]2COP(=O)(N[C@@H](C)C(=O)OCC(C)C)O[C@H]2[C@@]1(C)F (single isomer, unassigned) [Compound 4 Diastereomer 2] |  | BLD^a |  |  | 1575 pmol · hr/mill cells |  | 1% | > 50000 nM | < 250 nM
CCOc1nc(N)nc2c1ncn2[C@@H]1O[C@@H]2COP(=O)(N[C@@H](C)C(=O)OC(C)C)O[C@H]2[C@@]1(C)O (single isomer, unassigned) [Compound 5 Diastereomer 1] | > 50000 nM | 5% |  |  | 3615 pmol · hr/mill cells |  | 87% |  | 250 to 1000 nM
CCOc1nc(N)nc2c1ncn2[C@@H]1O[C@@H]2COP(=O)(N[C@@H](C)C(=O)OC(C)C)O[C@H]2[C@@]1(C)O (single isomer, unassigned) [Compound 5 Diastereomer 2] |  | 77% |  |  | 2108 pmol · hr/mill cells |  | 83% | > 50000 nM | 1000 to 10000 nM
CCOC(=O)C(C)(C)NP1(=O)OC[C@H]2O[C@@H](n3cnc4c(OCC)nc(N)nc43)[C@](C)(F)[C@@H]2O1 (single isomer, unassigned) [Compound 7 Diastereomer 1] | > 50000 nM | 91% |  |  | 1148 pmol · hr/mill cells | 250 to 1000 nM | 96% |  | 
CCOC(=O)C(C)(C)NP1(=O)OC[C@H]2O[C@@H](n3cnc4c(OCC)nc(N)nc43)[C@](C)(F)[C@@H]2O1 (single isomer, unassigned) [Compound 7 Diastereomer 2] |  | 102% |  |  | 830 pmol · hr/mill cells |  | 36% | > 50000 nM | < 250 nM
CCOc1nc(N)nc2c1ncn2[C@@H]1O[C@@H]2COP(=O)(N[C@@H](CC)COC(=O)C(C)C)O[C@H]2[C@@]1(C)F (single isomer, unassigned) [Compound 8 Diastereomer 1] | > 50000 nM | 15% |  |  | 308 pmol · hr/mill cells | < 250 nM | 18% |  | 
CCOc1nc(N)nc2c1ncn2[C@@H]1O[C@@H]2COP(=O)(N[C@@H](CC)COC(=O)C(C)C)O[C@H]2[C@@]1(C)F (single isomer, unassigned) [Compound 8 Diastereomer 2] |  | 69% |  |  | 359 pmol · hr/mill cells |  | 1% | > 50000 nM | < 250 nM
CCOc1nc(N)nc2c1ncn2[C@@H]1O[C@@H]2COP(=O)(N[C@@H](C)C(=O)OC3CCCC3)O[C@H]2[C@@]1(C)F (single isomer, unassigned) [Compound 10 Diastereomer 1] | > 50000 nM | 2% |  |  | 1944 pmol · hr/mill cells | < 250 nM | 5% |  | 
CCOc1nc(N)nc2c1ncn2[C@@H]1O[C@@H]2COP(=O)(N[C@@H](C)C(=O)OC3CCCC3)O[C@H]2[C@@]1(C)F (single isomer, unassigned) [Compound 10 Diastereomer 2] |  | 67% |  |  | 2752 pmol · hr/mill cells |  | 80% | ≤ 50000 nM | < 250 nM
CCOc1nc(N)nc2c1ncn2[C@@H]1O[C@@H]2COP(=O)(N[C@@H](C)COC(=O)C(C)C)O[C@H]2[C@@]1(C)F (stereo partly shown) [Compound 3] | > 50000 nM |  |  |  |  | < 250 nM |  |  | 
